Data reported in US9340574B2, “Inhibitors of protein tyrosine phosphatases” (Indiana University Research and Technology Corporation, priority 2012, dated 2016).
Read-outs that look alike come from different tables or passages of the source.

Experiments:
[1] = biological target: PTP-MEG2 (Homo sapiens (Human), UniProt P43378); assay: pNPP hydrolysis enzyme assay, PTP-MEG2; type: biochemical
Experimental: (§1) Enzyme kinetic assay. PTP activity was assayed using p-nitrophenyl phosphate (pNPP) as a substrate in 3,3-dimethylglutarate buffer (50 mM 3,3-dimethylglutarate, pH 7.0, 1 mM EDTA, 150 mM NaCl, 2 mM DTT, 0.1 mg/mL BSA) at 25° C. The assays were performed in 96-well plates. Normally, to determine the IC50 values, the reaction was initiated by the addition of enzyme (final concentration at 10 nM) to a reaction mixture (0.2 mL) containing 2 mM (Km for the substrate) pNPP with various concentrations of inhibitors. The reaction rate was measured using a SpectraMax Plus 384 Microplate Spectrophotometer (Molecular Devices). To determine the mode of inhibition, the reactions were initiated by the addition of PTP-MEG2 to the reaction mixtures (0.2 mL) containing various concentrations of pNPP with different concentrations of the inhibitor 7. Data were fitted using SigmaPlot Enzyme Kinetics Module (Systat Software, Inc.).
PTP-MEG2 Overexpression, and Purification. The expression vector containing residues 277-582 of PTP-MEG2 catalytic domain was provided by Stefan Knapp at the University of Oxford. For protein expression, transformed cells were grown at 37° C. in Luria broth (LB) containing […] ampicillin for 4 h to an OD600 nm @0.6, and then induced for overnight at 18° C. with 0.4 mM IPTG. Cells were harvested by centrifugation (6500 rpm for 15 min at 4° C.), and the cell pellets from 1.5 L LB medium were suspended in 30 mL of ice-cold lysis buffer consisting of 5 mM imidazole, 500 mM NaCl, 20 mM Tris-HCl (pH 7.9), 0.05 mg/mL trypsin inhibitor and 0.1 mM PMSF. The suspensions were passed twice through a French Press at 1200 psi, and the cell lysates were centrifuged at 4° C. for 30 min at 16,000 rpm. The supernatants were mixed with 2 mL Ni-NTA Agarose (His*Bind Resin) (Qiagen) at 4° C. for 1 hour, then transferred mixture to an empty column. The column was washed by 200 mL binding buffer (5 mM imidazole, 500 mM NaCl, 20 mM Tris-HCl (pH 7.9)), followed by 20 mL wash buffer (20 mM imidazole, 500 mM NaCl, 20 mM Tris-HCl (pH 7.9)), and then eluted with 20 mL elution buffer (200 mM imidazole, 500 mM NaCl, 20 mM Tris-HCl (pH 7.9), 5 mM DTT). The elution was dialyzed for 6 h at 4° C. against 1 L buffer A (50 mM NaCl, 20 mM MES (pH6.0), 1 mM EDTA), and then loaded onto a Mono S column equilibrated at 4° C. with buffer A. The column was washed with 10 ml buffer A and then eluted with a 40 mL linear gradient of 0 to 1M NaCl in buffer A. The PTP-MEG2 was eluted at 0.35 M NaCl. The column fractions were analyzed by measuring the absorbance at 280 nm and by carrying out SDS-PAGE analysis. The fractions were combined, dialyzed against 1 L buffer A and concentrated at 4° C. to 8 mg/mL using an Amicon concentrator and then stored at −80° C.

[2] = biological target: PTP1B (Homo sapiens (Human), UniProt P18031); assay: pNPP hydrolysis enzyme assay, PTP1B; type: biochemical
Sequence of PTP1B (P18031 whole entry, species assumed): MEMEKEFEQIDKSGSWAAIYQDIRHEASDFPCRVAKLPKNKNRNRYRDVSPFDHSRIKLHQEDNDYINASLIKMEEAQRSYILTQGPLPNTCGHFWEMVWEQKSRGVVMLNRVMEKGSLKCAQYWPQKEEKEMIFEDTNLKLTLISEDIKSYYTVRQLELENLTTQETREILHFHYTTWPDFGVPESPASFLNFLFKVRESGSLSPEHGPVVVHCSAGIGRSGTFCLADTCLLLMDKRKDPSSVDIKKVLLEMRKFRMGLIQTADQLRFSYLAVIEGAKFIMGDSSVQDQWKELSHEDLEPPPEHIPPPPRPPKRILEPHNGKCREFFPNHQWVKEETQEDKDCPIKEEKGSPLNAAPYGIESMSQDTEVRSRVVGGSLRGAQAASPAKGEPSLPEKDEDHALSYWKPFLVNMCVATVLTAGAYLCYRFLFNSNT
Experimental: as §1

[3] = biological target: TC-PTP (Homo sapiens (Human), UniProt P17706); assay: pNPP hydrolysis enzyme assay, TC-PTP; type: biochemical; details: for IC50: pNPP substrate
Sequence of TC-PTP (P17706 whole entry, looked up, species assumed): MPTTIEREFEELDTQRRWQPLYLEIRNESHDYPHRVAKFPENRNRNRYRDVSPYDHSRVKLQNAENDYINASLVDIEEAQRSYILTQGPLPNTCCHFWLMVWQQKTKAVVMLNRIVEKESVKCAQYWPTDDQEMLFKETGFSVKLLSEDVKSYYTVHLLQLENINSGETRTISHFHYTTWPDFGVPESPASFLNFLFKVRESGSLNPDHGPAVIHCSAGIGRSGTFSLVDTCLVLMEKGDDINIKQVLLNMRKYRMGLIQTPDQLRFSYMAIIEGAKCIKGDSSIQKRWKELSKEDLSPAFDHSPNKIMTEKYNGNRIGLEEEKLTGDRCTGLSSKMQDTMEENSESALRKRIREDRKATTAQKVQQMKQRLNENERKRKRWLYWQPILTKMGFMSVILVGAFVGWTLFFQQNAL
Experimental: as §1

[4] = biological target: CD45 (Homo sapiens (Human), UniProt P08575); assay: pNPP hydrolysis enzyme assay, CD45; type: biochemical
Sequence of CD45 (P08575 26-1306, species assumed): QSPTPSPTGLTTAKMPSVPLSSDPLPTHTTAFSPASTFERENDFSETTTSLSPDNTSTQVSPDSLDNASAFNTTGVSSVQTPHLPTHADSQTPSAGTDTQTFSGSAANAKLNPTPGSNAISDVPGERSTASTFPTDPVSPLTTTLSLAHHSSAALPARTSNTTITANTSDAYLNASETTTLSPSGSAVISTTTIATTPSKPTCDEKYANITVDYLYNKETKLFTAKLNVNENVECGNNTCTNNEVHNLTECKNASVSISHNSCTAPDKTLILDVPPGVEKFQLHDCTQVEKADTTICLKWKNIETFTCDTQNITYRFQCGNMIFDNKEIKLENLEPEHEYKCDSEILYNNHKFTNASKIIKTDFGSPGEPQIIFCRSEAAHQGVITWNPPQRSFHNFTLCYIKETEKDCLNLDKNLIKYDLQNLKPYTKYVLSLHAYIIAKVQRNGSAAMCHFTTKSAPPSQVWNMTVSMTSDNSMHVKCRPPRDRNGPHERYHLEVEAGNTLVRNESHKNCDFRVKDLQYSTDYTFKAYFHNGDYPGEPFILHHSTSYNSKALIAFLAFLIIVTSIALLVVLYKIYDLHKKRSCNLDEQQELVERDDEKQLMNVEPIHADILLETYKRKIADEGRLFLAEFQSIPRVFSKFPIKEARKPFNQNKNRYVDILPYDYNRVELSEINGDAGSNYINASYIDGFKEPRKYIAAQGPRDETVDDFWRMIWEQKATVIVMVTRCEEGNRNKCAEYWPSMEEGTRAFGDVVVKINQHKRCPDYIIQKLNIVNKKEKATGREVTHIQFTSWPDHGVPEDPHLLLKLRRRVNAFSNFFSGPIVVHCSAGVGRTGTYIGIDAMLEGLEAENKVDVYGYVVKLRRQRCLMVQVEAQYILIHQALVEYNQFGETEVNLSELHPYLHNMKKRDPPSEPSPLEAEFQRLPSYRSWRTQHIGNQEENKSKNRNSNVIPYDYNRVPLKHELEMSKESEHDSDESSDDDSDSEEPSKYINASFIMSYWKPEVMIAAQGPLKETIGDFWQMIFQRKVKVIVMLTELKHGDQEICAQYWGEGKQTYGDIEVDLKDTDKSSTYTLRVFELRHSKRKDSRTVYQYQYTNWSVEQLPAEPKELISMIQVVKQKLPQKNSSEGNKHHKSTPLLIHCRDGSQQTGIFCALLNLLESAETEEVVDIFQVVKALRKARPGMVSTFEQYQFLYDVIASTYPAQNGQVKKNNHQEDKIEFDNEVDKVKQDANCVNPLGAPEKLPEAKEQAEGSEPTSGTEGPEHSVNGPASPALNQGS
Experimental: as §1

[5] = biological target: DEP1 (Homo sapiens (Human), UniProt Q12913); assay: pNPP hydrolysis enzyme assay, DEP1; type: biochemical
Sequence of DEP1 (Q12913 36-1337, species assumed): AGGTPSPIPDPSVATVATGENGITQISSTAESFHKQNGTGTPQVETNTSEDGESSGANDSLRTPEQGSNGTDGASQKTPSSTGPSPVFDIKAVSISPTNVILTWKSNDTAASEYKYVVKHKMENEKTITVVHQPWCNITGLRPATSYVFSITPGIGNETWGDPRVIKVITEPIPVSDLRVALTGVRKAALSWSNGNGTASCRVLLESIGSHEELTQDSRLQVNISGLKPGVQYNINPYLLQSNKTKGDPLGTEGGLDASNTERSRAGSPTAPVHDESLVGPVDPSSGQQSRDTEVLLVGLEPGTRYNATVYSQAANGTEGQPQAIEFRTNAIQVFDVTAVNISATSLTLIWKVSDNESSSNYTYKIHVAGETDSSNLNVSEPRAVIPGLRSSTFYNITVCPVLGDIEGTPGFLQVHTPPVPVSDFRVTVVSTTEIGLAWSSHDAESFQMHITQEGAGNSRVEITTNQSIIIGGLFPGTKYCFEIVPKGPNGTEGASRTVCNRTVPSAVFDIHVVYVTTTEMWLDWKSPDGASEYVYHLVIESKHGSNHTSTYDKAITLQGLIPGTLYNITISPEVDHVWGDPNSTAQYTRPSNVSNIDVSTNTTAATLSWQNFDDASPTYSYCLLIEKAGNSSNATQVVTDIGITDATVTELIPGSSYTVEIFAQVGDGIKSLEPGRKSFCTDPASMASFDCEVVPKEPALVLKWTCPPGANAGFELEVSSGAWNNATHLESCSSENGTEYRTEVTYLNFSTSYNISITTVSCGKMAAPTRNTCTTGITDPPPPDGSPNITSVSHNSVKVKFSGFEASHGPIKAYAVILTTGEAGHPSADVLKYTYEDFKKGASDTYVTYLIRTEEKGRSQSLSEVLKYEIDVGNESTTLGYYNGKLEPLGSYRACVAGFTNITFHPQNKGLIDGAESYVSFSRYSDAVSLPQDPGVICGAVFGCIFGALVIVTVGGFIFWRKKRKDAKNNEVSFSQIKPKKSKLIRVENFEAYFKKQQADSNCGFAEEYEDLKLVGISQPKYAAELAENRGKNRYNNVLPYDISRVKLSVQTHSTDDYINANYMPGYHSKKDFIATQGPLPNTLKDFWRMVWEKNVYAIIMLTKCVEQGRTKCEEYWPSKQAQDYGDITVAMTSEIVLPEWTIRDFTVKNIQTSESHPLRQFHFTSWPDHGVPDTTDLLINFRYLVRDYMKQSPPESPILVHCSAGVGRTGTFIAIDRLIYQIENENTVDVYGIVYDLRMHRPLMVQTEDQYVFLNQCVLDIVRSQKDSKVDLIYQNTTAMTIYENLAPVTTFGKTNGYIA
Experimental: as §1

[6] = system: C2C12 myotubes; assay: Insulin signaling in C2C12 myotubes; type: cell-based; details: 1 hour pretreatment, 100 nM insulin 30 min
Experimental: Cell lysate (20 μg protein) was subjected to 10% SDS-PAGE and probed with phospho-Akt, phospho-IR (Y1162/1163) or Akt antibody, respectively. […] Cell lysate (20 μg protein) was subjected to 10% SDS-PAGE and probed with phospho-IR(Y1162/1163), phospho-Akt (pS473) or total Akt antibody, respectively. […] Cell lysate (20 μg protein) or insulin receptor immunoprecipitation beads were subjected to 10% SDS-PAGE and probed with phospho-Akt, Akt, insulin receptor beta or phospho-tyrosine antibody (4G10), respectively. The non-specific band from insulin receptor immunoprecipitates served as a loading control for insulin receptor and phospho-insulin receptor.
Western blot analysis. Cells were homogenized in the lysis buffer (50 mM Hepes, pH 7.5, 150 mM NaCl, 10% Glycerol, 1% Triton X-100, 1.5 mM MgCl2, 1 mM EGTA, 10 μM Sodium Pyrophosphate, 100 mM sodium fluoride and freshly added 100 μM sodium vanadate, 1 mM PMSF, 10 μg/ml Aprotinin, and 10 μg/mL Leupeptin). Protein extracts were resolved on an SDS-PAGE gel and transferred to nitrocellulose membrane. […] Protein signals were detected by incubation with HRP-conjugated secondary antibodies, followed by ECL detection reagent (Pierce). Western blots were scanned and quantified using the Quantity One software (Bio-Rad).

[7] = system: insulin signaling in metabolic tissues of diet-induced obese mice; assay: Insulin signaling in liver, skeletal muscle and white adipose tissue of diet-induced obese mice (immunoblot); type: in vivo, mouse; details: skeletal muscle, white adipose tissue, 2-week injections, insulin bolus
Text: To investigate the underlying mechanisms responsible for the improved insulin sensitivity in Compound 7 treated diet-induced obese mice, we analyzed key insulin signaling events in metabolically active tissues. Phosphorylation of Tyr1162/1163 residues in IR was stimulated 2-3 fold higher in the liver, skeletal muscle, and white adipose tissue in Compound 7 treated mice than that in control mice (FIGS. 5G & H). […] These biochemical data are consistent with the animal phenotype that Compound 7 can effectively improve insulin sensitivity in diet-induced obese mice. Our finding that chemical inhibition of PTP-MEG2 augments insulin signaling, insulin sensitivity and glucose homeostasis in insulin resistant mice is consistent with the observation that silencing of PTP-MEG2 in the livers of db/db mice results in a reversal of insulin resistance and hyperglycemia (Cho, et al., Cell Metab. 2006, 3, 367-378). Moreover, our in vivo data also serve as proof-of-concept and support the notion that specific inhibitors of PTP-MEG2 may be effective anti-diabetes agents.

Sequence of PTP-MEG2 (P43378 277-582): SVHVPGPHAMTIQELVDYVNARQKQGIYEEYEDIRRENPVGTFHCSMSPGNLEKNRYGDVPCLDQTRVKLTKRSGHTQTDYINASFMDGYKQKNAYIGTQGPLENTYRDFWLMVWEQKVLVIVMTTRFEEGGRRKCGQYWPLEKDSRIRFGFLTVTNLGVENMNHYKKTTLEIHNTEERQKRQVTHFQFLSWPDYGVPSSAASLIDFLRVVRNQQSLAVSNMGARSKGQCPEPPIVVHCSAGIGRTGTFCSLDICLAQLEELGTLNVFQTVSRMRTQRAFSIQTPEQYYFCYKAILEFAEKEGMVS

## COc1cc(CC(=O)NCC(NC(=O)C(CCCNC(=O)c2cccc(I)c2)NC(=O)C(Cc2ccc(C(F)(F)P(=O)(O)O)cc2)NC(=O)c2ccc(C)c(Br)c2)C(N)=O)ccc1O (centres unmarked) [Compound 7]
[1]; Compound 5 vs Compound 3, Compound 7 vs Compound 5
  improvement in potency / binding affinity for PTP-MEG2 over the preceding lead: 3.6 fold
[1]; kinetic analysis
  mode of inhibition of PTP-MEG2: reversible and competitive inhibitor
[1]; kinetic analysis, Lineweaver-Burk
  Ki: 34 ± 2 nM
[1]; pNPP substrate, read-out: IC50 (nM) PTP-MEG2
  IC50: 75 ± 10 nM
[2]; pNPP substrate
  IC50: 860 nM
[2]; ratio of IC50 values
  selectivity for PTP-MEG2 over PTP1B: more than 10 fold
[3]; read-out: IC50 (nM) TC-PTP
  IC50: 830 nM
[3]; read-out: IC50 for TC-PTP
  IC50: 830 nM
[3]; ratio of IC50 values
  selectivity for PTP-MEG2 over TC-PTP: more than 10 fold
[4]
  IC50: > 10000 nM
[5]
  IC50: > 10000 nM
[6]
  insulin signaling (phospho-Akt, phospho-IR): augmented insulin signaling
[7]
  increase of Akt (Ser473) phosphorylation: 40-60%
  phosphorylation of Tyr1162/1163 in IR, higher than control mice: 2-3 fold
